Experimental data taken from patent US10336702B2, “Pharmaceutically active compounds” (BERGENBIO ASA, priority 2015, dated 2019).

Assays:
Akt2 = biological target: T1, Akt2 (Homo sapiens, UniProt P31751); experiment: Akt activation assay (PDK1-mediated activation, LANCE Ultra crosstide TR-FRET), Akt2; assay type: biochemical; conditions: read-out: Biological Assay 1 IC50 (nM) Akt2
T1 construct: unspecified tag, removed (detagged) (cleaved yes); purchased SignalChem and Proteros (Akt2); Merck Millipore (PDK1) 14-452 (PDK1); none given for Akt2
Experimental: (§1) Biological Assay 1: Akt Activation Assay
(§2) Addition of a Europium-labelled antibody specific to the phosphopeptide allows energy transfer from the Europium donor to the Ultra Ulight™ acceptor if close enough in proximity.
(§3) Full length active His6-tagged PDK1 was obtained from Merck Millipore (14-452).
(§4) 1× assay buffer (AB): 50 mM HEPES pH 7.5, 1 mM EGTA, 10 mM MgCl2, 0.01% Tween. Immediately before use, DTT to a concentration of 2 mM was added.
(§5) To prepare lipid vesicles: 1 mg/ml PtdIns(3,4,5)P3 solution (in 10 mM HEPES 7.5) was added to 16.7 mg/ml DOPS/DOPC mixture (in 10 mM HEPES pH 7.5) in a ratio of 1:8.3. MilliQ water was added to the solution to generate concentrations of 400 μM DOPS, 400 μM DOPC and 40 μM PtdIns(3,4,5)P3. The mixture was subjected to 5× freeze/thaw cycles and aliquots stored at −20° C.
(§6) 5 μL enzyme in 1×AB was incubated with 2.5 μL test compound. To start the reaction 2.5 μL reaction mix was added which consisted of PDK1, lipid preparations, crosstide and ATP in 1×AB. Final assay concentrations were as follows: 1% DMSO, 5 nM SignalChem Akt1/15 nM SignalChem Akt2/3 nM Signalchem Akt3/5 nM Proteros Akt1/5 nM proteros Akt2/5 nM Proteros Akt3, 5 nM PDK1, 5.5 μM DOPS, 5.5 μM DOPC, 0.55 μM PtdIns(3,4,5)P3, 100 μM ATP, 100 nM LANCE® Ultra Ulight™-Crosstide. After 30 min, the reaction was stopped using 5 μL 40 μM EDTA in 1× Detection buffer for 5 min. For detection, 5 μL 8 nM LANCE® Ultra Europium-anti-phospho-Crosstide antibody in 1× Detection buffer was added to each well and incubated for 1 h. Plates read with the EnVision® Multilabel Plate Reader, excitation at 320 nm and emission at 665 nm and 615 nm. Compound IC50 was determined using a 4-parameter equation.

p-Akt2 in WM115 cells = biological target: T2, p-Akt2 in WM115 cells (Homo sapiens, UniProt P31751); experiment: Phospho-Akt cellular SureFire assay, p-Akt2 in WM115 cells; assay type: cell-based; conditions: insulin stimulated, read-out: Biological Assay 2 IC50 (nM) Akt2 WM115
T2 construct: SureFire assays to detect cellular p-Akt1, p-Akt2 and p-Akt3 levels in WM115 cells (Akt2/3) and LNCaP cells (Akt1); endogenous in cells; host or cells: WM115 (ECACC 91061232), insulin-stimulated
From the text: (§7) Biological Assay 2: Phospho-Akt (p-Akt) Cellular SureFire Assays
(§8) The following describes SureFire assays to detect cellular p-Akt1, p-Akt2 and p-Akt3 levels in WM115 cells (Akt2/3) and LNCaP cells (Akt1). In the case of Akt2 and Akt3, Streptavidin-coated donor beads capture a biotinylated anti-mouse antibody that in turn recognises a mouse total Akt antibody which is specific to each isoform. The protein A-conjugated acceptor beads capture an antibody that recognises the phosphoprotein. Similarly in the Akt1 kit, the donor and acceptor beads are used to capture each antibody pair consisting of an antibody that specifically recognises Akt1 as well as an antibody that recognises the phosphoprotein. In each case, close proximity of the beads allows energy transfer from donor to acceptor.
(§9) Custom kit from TGR/Perkin Elmer for Akt2/3 containing anti-(pThr308)Akt antibody and biotinylated anti-mouse capture antibody.
Total Akt2 antibody (NEB UK, 5239)
(§10) WM115 cells (ECACC, 91061232) cultured in MEM culture media (M2279) supplemented with 2 mM L-glutamine (G7513), 1% non-essential amino acids (M7145), 1% sodium pyruvate (S8636) and 10% FBS (F0804)
(§11) Cell treatment: 1×10^5 WM115 cells or 5×10^4 LNCaP cells were seeded into each well of a 96 well poly-D-Lysine coated tissue culture plate and incubated overnight at 37° C.+5% CO2. Media was removed from cells and replaced with assay buffer consisting of the full culture media described above but with 0.1% FBS instead of 10% FBS. Only WM115 cells were stimulated at 37° C.+5% CO2 for 10 min with 5 μL insulin at a final concentration of 100 nM. Cells were incubated with 5 μL of test compound at a final DMSO concentration of 0.3% for 15 min at 37° C.+5% CO2. Cell lysis was carried out according to kit instructions.
(§12) Assay format (performed in subdued lighting): 4 μL cell lysate and 5 μL reaction buffer were incubated together in the dark at room temperature for 2 h. Reaction buffer was supplemented with a 1/5 dilution of activation buffer, a 1/50 dilution of acceptor beads and in the case of the custom kits, antibodies were added at dilutions of 1/20,000 for Akt2 and 1/2,000 for Akt3.
(§13) 2 μL dilution buffer, supplemented with a 1/20 dilution of donor beads was added to each well and incubated for a further 2 h. Plates were read with the EnVision® Multilabel Plate Reader and using the AlphaScreen settings. Compound IC50 was determined using a 4-parameter equation.

Akt3 = biological target: T3, Akt3 (Homo sapiens, UniProt Q9Y243); experiment: Akt activation assay (PDK1-mediated activation, LANCE Ultra crosstide TR-FRET), Akt3; assay type: biochemical; conditions: read-out: Biological Assay 1 IC50 (nM) Akt3
T3 construct: unspecified tag, removed (detagged) (cleaved yes); purchased SignalChem and Proteros (Akt3); Merck Millipore (PDK1) 14-452 (PDK1); none given for Akt3
Experimental: as §1, §2, §3, §4, §5, §6

Akt1 = biological target: T4, Akt1 (Homo sapiens, UniProt P31749); experiment: Akt activation assay (PDK1-mediated activation, LANCE Ultra crosstide TR-FRET), Akt1; assay type: biochemical; conditions: read-out: Biological Assay 1 IC50 (nM) Akt1
T4 construct: unspecified tag, removed (detagged) (cleaved yes); purchased SignalChem and Proteros (Akt1); Merck Millipore (PDK1) 14-452 (PDK1); none given for Akt1
Experimental: as §1, §2, §3, §4, §5, §6

p-Akt3 in WM115 cells = biological target: T5, p-Akt3 in WM115 cells (Homo sapiens, UniProt Q9Y243); experiment: Phospho-Akt cellular SureFire assay, p-Akt3 in WM115 cells; assay type: cell-based; conditions: insulin stimulated, read-out: Biological Assay 2 IC50 (nM) Akt3 WM115
T5 construct: SureFire assays to detect cellular p-Akt1, p-Akt2 and p-Akt3 levels in WM115 cells (Akt2/3) and LNCaP cells (Akt1); endogenous in cells; host or cells: WM115 (ECACC 91061232), insulin-stimulated
From the text: as §7, §8, §9
Total Akt3 antibody (R&D Systems MAB 1463)
as §10, §11, §12, §13

T1 sequence (P31751 whole entry): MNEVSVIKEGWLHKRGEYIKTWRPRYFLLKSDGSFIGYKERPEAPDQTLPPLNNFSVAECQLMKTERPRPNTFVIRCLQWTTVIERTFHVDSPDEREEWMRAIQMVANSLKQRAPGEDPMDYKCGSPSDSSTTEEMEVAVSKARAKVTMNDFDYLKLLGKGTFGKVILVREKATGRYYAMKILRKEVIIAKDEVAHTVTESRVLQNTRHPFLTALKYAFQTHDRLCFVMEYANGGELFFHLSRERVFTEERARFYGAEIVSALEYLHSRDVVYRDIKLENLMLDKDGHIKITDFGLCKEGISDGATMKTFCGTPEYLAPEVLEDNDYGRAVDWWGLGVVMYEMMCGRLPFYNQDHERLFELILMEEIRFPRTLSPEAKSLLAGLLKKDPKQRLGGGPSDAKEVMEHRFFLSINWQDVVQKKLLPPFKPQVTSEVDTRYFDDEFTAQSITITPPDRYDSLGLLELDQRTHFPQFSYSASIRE
T2 sequence (P31751 whole entry): as above
T3 sequence (Q9Y243 whole entry): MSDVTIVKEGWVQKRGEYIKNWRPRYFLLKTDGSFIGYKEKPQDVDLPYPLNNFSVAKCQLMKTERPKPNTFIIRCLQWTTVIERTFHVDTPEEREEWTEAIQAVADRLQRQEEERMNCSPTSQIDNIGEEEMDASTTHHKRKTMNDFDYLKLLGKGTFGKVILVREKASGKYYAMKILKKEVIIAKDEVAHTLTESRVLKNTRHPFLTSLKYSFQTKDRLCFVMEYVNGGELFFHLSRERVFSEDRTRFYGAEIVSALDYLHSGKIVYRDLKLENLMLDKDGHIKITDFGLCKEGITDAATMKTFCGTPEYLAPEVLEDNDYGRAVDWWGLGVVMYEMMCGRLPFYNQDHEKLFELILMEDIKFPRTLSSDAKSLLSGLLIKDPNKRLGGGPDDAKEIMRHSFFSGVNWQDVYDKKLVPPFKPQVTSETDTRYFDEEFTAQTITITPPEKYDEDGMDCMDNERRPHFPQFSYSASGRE
T5 sequence (Q9Y243 whole entry): as above
T4 sequence (P31749 whole entry): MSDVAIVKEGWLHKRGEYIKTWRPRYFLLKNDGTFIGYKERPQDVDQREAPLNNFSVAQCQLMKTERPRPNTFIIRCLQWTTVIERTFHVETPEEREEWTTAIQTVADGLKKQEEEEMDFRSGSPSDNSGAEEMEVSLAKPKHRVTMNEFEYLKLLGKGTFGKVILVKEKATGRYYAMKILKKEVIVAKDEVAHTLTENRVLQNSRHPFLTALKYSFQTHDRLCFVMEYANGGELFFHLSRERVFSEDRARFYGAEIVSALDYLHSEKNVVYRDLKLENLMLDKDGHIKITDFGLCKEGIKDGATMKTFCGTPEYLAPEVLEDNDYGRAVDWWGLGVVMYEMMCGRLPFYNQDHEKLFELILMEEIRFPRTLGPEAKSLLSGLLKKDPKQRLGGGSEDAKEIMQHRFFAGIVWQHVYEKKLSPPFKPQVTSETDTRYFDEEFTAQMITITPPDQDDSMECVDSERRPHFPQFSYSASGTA

| Structure (SMILES) | IC50 (Akt2) | IC50 (p-Akt2 in WM115 cells) | IC50 (Akt3) | IC50 (Akt1) | IC50 (p-Akt3 in WM115 cells) |
| --- | --- | --- | --- | --- | --- |
| NC1(c2ccc(-c3ncc(NC(=O)C(F)C4CCN(S(=O)(=O)C5CC5)CC4)cc3-c3ccccc3)cc2)CCC1 (stereo not drawn) [Example 40, N-(6-(4-(1-aminocyclobutyl)phenyl)-5-phenylpyridin-3-yl)-2-(1-(cyclopropylsulfonyl)piperidin-4-yl)-2-fluoroacetamide] | 440 nM | 2900 nM | 360 nM | 9800 nM | 220 nM |
| NC1(c2ccc(-c3ncc(NC(=O)C[C@H]4CC[C@H](N5CCOC5=O)CC4)cc3-c3ccccc3)cc2)CC(F)(F)C1 [Example A3, N-(6-(4-(1-amino-3,3-difluorocyclobutyl)phenyl)-5-phenylpyridin-3-yl)-2-(trans-4-(2-oxooxazolidin-3-yl)cyclohexyl)acetamide] | 530 nM | 2600 nM | 150 nM | > 5100 nM | 100 nM |
| CC(=O)N(C)[C@H]1CC[C@H](CC(=O)Nc2cc(-c3ccccc3)c(-c3ccc([C@]4(N)C[C@H](F)C4)cc3)nn2)CC1 [Example 46, N-(6-(4-(trans-1-amino-3-fluorocyclobutyl)phenyl)-5-phenylpyridazin-3-yl)-2-(trans-4-(N-methylacetamido)cyclohexyl)acetamide] | 440 nM | 2600 nM | 100 nM | 11000 nM | 46 nM |
| CC(=O)N(C(C)C)[C@H]1CC[C@H](CC(=O)Nc2cnc(-c3ccc(C4(N)CCC4)cc3)c(-c3ccccc3)c2)CC1 [Example 49, N-(6-(4-(1-aminocyclobutyl)phenyl)-5-phenylpyridin-3-yl)-2-(trans-4-(N-isopropylacetamido)cyclohexyl)acetamide] | 530 nM | 2900 nM | 280 nM | 6900 nM | 140 nM |
| CC(=O)N(C)[C@H]1CC[C@H](CC(=O)Nc2cc(-c3ccsc3)c(-c3ccc(C4(N)CCC4)cc3)nn2)CC1 [Example A97, N-(6-(4-(1-aminocyclobutyl)phenyl)-5-(thiophen-3-yl)pyridazin-3-yl)-2-(trans-4-(N-methylacetamido)cyclohexyl)acetamide] | 430 nM | 3200 nM | 9 nM | – | 41 nM |
| CC(=O)N(C)[C@H]1CC[C@H](CC(=O)Nc2cnc(-c3ccc(C4(N)CC4)cc3)c(-c3ccccc3)c2)CC1 [Example 12, N-(6-(4-(1-aminocyclopropyl)phenyl)-5-phenylpyridin-3-yl)-2-(trans-4-(N-methylacetamido)cyclohexyl)acetamide] | 1000 nM | 2300 nM | 84 nM | – | 220 nM |
| CCC(=O)N(C)[C@H]1CC[C@H](CC(=O)Nc2cnc(-c3ccc(C4(N)CC4)c(F)c3)c(-c3ccccc3)c2)CC1 [Example 90, N-(trans-4-(2-((6-(4-(1-aminocyclopropyl)-3-fluorophenyl)-5-phenylpyridin-3-yl)amino)-2-oxoethyl)cyclohexyl)-N-methylpropionamide] | 2500 nM | 6500 nM | 120 nM | – | 170 nM |

Now those with a lower IC50 (Akt2), led by results:

| IC50 (Akt2) | IC50 (p-Akt2 in WM115 cells) | IC50 (Akt3) | IC50 (Akt1) | IC50 (p-Akt3 in WM115 cells) | Structure (SMILES) |
| --- | --- | --- | --- | --- | --- |
| 220 nM | 780 nM | 12 nM | > 30000 nM | 13 nM | CN(C(=O)C(F)F)[C@H]1CC[C@H](CC(=O)Nc2cc(-c3ccccc3)c(-c3ccc([C@]4(N)C[C@](C)(O)C4)cc3)cn2)CC1 [Example 109, N-(trans-4-(2-((5-(4-(trans-1-amino-3-hydroxy-3-methylcyclobutyl)phenyl)-4-phenylpyridin-2-yl)amino)-2-oxoethyl)cyclohexyl)-2,2-difluoro-N-methylacetamide] |
| 220 nM | 670 nM | 10 nM | – | 16 nM | CCN(C(C)=O)[C@H]1CC[C@H](CC(=O)Nc2cc(-c3ccccc3)c(-c3ccc([C@]4(N)C[C@](C)(O)C4)cc3)cn2)CC1 [Example 108, N-(5-(4-(trans-1-amino-3-hydroxy-3-methylcyclobutyl)phenyl)-4-phenylpyridin-2-yl)-2-(trans-4-(N-ethylacetamido)cyclohexyl)acetamide] |
| 180 nM | 790 nM | 19 nM | 4100 nM | 51 nM | NC1(c2ccc(-c3ncc(NC(=O)C[C@H]4CC[C@H](N5CCOC5=O)CC4)cc3-c3ccccc3)cc2)CCC1 [Example A27, N-(6-(4-(1-aminocyclobutyl)phenyl)-5-phenylpyridin-3-yl)-2-(trans-4-(2-oxooxazolidin-3-yl)cyclohexyl)acetamide] |
| 140 nM | 1300 nM | 18 nM | – | 51 nM | COC(=O)N(C)[C@H]1CC[C@H](CC(=O)Nc2cc(-c3ccccc3F)c(-c3ccc([C@]4(N)C[C@](C)(O)C4)cc3)cn2)CC1 [Example 96, Methyl (trans-4-(2-((5-(4-(trans-1-amino-3-hydroxy-3-methylcyclobutyl)phenyl)-4-(2-fluorophenyl)pyridin-2-yl)amino)-2-oxoethyl)cyclohexyl)(methyl)carbamate] |
| 120 nM | 660 nM | 10 nM | > 22000 nM | 17 nM | CCC(=O)N(C)[C@H]1CC[C@H](CC(=O)Nc2cc(-c3ccccc3F)c(-c3ccc([C@]4(N)C[C@](C)(O)C4)cc3)cn2)CC1 [Example 95, N-(trans-4-(2-((5-(4-(trans-1-amino-3-hydroxy-3-methylcyclobutyl)phenyl)-4-(2-fluorophenyl)pyridin-2-yl)amino)-2-oxoethyl)cyclohexyl)-N-methylpropionamide] |
| 100 nM | 2300 nM | 14 nM | > 19000 nM | 160 nM | CCC(=O)N(C)[C@H]1CC[C@H](CC(=O)Nc2cc(-c3ccccc3F)c(-c3ccc(C4(N)CCC4)cc3)cn2)CC1 [Example A102, N-(trans-4-(2-((5-(4-(1-aminocyclobutyl)phenyl)-4-(2-fluorophenyl)pyridin-2-yl)amino)-2-oxoethyl)cyclohexyl)-N-methylpropionamide] |
